Laboratory results as given in patent US20090263429A1, “Method of Preparing a Hydrogel” (The University of Manchester, priority 2005, published 2009).

Experiment: 96 well screen of Fmoc/Cbz-amino acid and dipeptide with thermolysin (gelation)
Type: physicochemical
Conditions: Fmoc-G and GG with thermolysin, 20 mM Fmoc-aa, 48 hours at room temperature
Experimental: Fmoc-amino acids or Cbz-amino acids with dipeptides were weighed in to a clean universal to the different concentrations and the various ratios required. They were then suspended in deionised water, and solubilized by the addition of 0.5M NaOH to adjust the pH to 13. The particle size was reduced through the reduction of larger clumps by gentle manipulation with a spatula, and the subsequent immersion in a sonication bath. […] The pH was reduced by the addition dropwise from a 200 μl pipette of 0.1 M HCl with gentle vortexing until the value reached 7. […] Upon acquisition of a neutral pH, de-ionised water was added up to the required volume.
The enzyme, thermolysin, was provided in the form of a lyphophilized powder. This was weighed to a sterile universal, and then reconstituted in distilled water to a concentration of 1 mg/ml. In order to ensure the enzyme was fully solubilised, the solution was vortexed for thirty seconds, and stored at room temperature within a sealed container and used within thirty minutes. […]
A 96 well format was developed to screen large numbers of combinations of reactant ratios and concentrations. […] Relative quantities of these were added. […] Sufficient quantities of distilled water were added to make up to a final volume of […]. […] Results of the reactions were measured by HPLC, and the degree of conversion of Fmoc/Cbz-amino acid to Fmoc/Cbz-tripeptide was calculated.

gel formation: doesn't form a gel
Substance: Fmoc-triGlycine [Fmoc-GGG]
